# Entries after “also recorded” stand apart in the source; their conditions may differ.
# Key:
# microorganisms [1] = assay: Peptide activities: targeting/binding, antimicrobial, growth or phenotype altering (Tables 7, 8); assay type: cell-based; settings: peptides having multiple activities
# microorganisms [2] = assay: Targeting peptide binding to target microorganisms (Tables 3, 10, 12); settings: microorganism(s) the targeting peptide binds; binding in aqueous buffers varied with peptide solubility, preferably 1x PBS
# microorganisms [3] = assay: Morphology, biofilm and growth disrupting peptides (Table 5); assay type: cell-based; design: key: A: Peptide aggregates; B: Less hyphal formation; Clumps; Diffuse clumps and small polyps; F: Diffuse growth; H: Thin; I: Growth inhibition; Microcolony formation; Rippled; Small polyps; Thick; W: Halo formation on top, microlonies on bottom
# Text: In certain embodiments peptides that induce alterations in phenotype or other biological activities can also be used as antimicrobial effector moieties.
Substance,Activities (microorganisms [1]),Target(s) (microorganisms [2]),"Organism, effect: MRSA (microorganisms [3]; MRSA)","Organism, effect: S. epidermidis (microorganisms [3]; S. epidermidis)",other results
PF-393: peptide having multiple activities (chain 1 DLVQSILSEFKKSG; chain 2 DLVQSILSEFKKSG; Peptide with targeting and/or antimicrobial activity),G B,S. epidermidis and E. coli and C. albicans and MRSA and S. pneumoniae and C. jejuni,MRSA (C),S. epidermidis (R),"Organism, effect: C. jejuni (microorganisms [3]; C. jejuni): C. jejuni (R); Organism, effect: E. faecalis (microorganisms [3]; E. faecalis): E. faecalis (A); Organism, effect: S. pneumoniae (microorganisms [3]; S. pneumoniae): S. pneumoniae (R)"
PF-394: peptide having multiple activities (chain 1 VLKEECYQKN; chain 2 VLKEECYQKN; Peptide with targeting and/or antimicrobial activity),G B,S. epidermidis and MRSA and C. jejuni,MRSA (C),–,"Organism, effect: E. faecalis (microorganisms [3]; E. faecalis): E. faecalis (A)"
PF-395: peptide having multiple activities (chain 1 YCVPLGNMGNMNNKIW; chain 2 YCVPLGNMGNMNNKIW; Peptide with targeting and/or antimicrobial activity),G B,S. epidermidis; also recorded: E. coli; also recorded: P. aeruginosa; also recorded: S. pneumoniae; also recorded: E. faecalis; also recorded: C. jeikeium; also recorded: C. jejuni,MRSA (C),S. epidermidis (C),"Organism, effect: E. coli (microorganisms [3]; E. coli): E. coli (R)"
PF-396: peptide having multiple activities (chain 1 LIYTILASLGVLTVLQAILGREPKAVKA; chain 2 LIYTILASLGVLTVLQAILGREPKAVKA; Peptide with targeting and/or antimicrobial activity),G B,S. epidermidis; also recorded: E. coli; also recorded: P. aeruginosa; also recorded: C. albicans; also recorded: E. faecalis; also recorded: C. jeikeium,MRSA (C),S. epidermidis (S),"Organism, effect: E. coli (microorganisms [3]; E. coli): E. coli (C); Organism, effect: E. faecalis (microorganisms [3]; E. faecalis): E. faecalis (C)"
PF-397: peptide having multiple activities (chain 1 VEDLMEDLNA; chain 2 VEDLMEDLNA; Peptide with targeting and/or antimicrobial activity),G B,S. epidermidis and MRSA and S. pneumoniae and E. faecalis and C. jejuni,–,S. epidermidis (C),–
PF-401: peptide having multiple activities (chain 1 YWLSRVTTGHSFAFEKPVPLSLTIK; chain 2 YWLSRVTTGHSFAFEKPVPLSLTIK; Peptide with targeting and/or antimicrobial activity),G B,S. epidermidis and E. coli and P. aeruginosa and MRSA and E. faecalis and C. jejuni,MRSA (C),S. epidermidis (C),"Organism, effect: E. coli (microorganisms [3]; E. coli): E. coli (R); Organism, effect: E. faecalis (microorganisms [3]; E. faecalis): E. faecalis (C)"
PF-403: peptide having multiple activities (chain 1 LLSTEQLLKYYDGETFDGFQLPSNE; chain 2 LLSTEQLLKYYDGETFDGFQLPSNE; Peptide with targeting and/or antimicrobial activity),G B,E. coli; also recorded: P. aeruginosa; also recorded: S. pneumoniae; also recorded: E. faecalis; also recorded: C. jeikeium; also recorded: C. jejuni,MRSA (M),S. epidermidis (M),"Organism, effect: E. coli (microorganisms [3]; E. coli): E. coli (R)"
PF-404: peptide having multiple activities (chain 1 VLYFQATVV; chain 2 VLYFQATVV; Peptide with targeting and/or antimicrobial activity),G B,S. epidermidis; also recorded: E. coli; also recorded: P. aeruginosa; also recorded: E. faecalis; also recorded: C. jeikeium; also recorded: C. jejuni,MRSA (M),S. epidermidis (M),–
PF-405: peptide having multiple activities (chain 1 LVRIEVDDLEEWYERNFI; chain 2 LVRIEVDDLEEWYERNFI; Peptide with targeting and/or antimicrobial activity),G B,S. epidermidis; also recorded: E. coli; also recorded: E. faecalis,MRSA (M),–,–
PF-406: peptide having multiple activities (chain 1 YLEMNADYLSNMDIFDELWEKYLENNK; chain 2 YLEMNADYLSNMDIFDELWEKYLENNK; Peptide with targeting and/or antimicrobial activity),G B,E. coli; also recorded: C. jejuni,MRSA (M),S. epidermidis (C),–
PF-408: peptide having multiple activities (chain 1 YCVPLGNMGNMNNKIW; chain 2 YCVPLGNMGNMNNKIW; Peptide with targeting and/or antimicrobial activity),G B,S. epidermidis and E. coli and P. aeruginosa and MRSA and E. faecalis and C. jeikeium and C. jejuni,MRSA (M),S. epidermidis (M),–
PF-413: peptide having multiple activities (chain 1 TFAGSIKIGVPDLVHVTFNCKR; chain 2 TFAGSIKIGVPDLVHVTFNCKR; Peptide with targeting and/or antimicrobial activity),G B,P. aeruginosa; also recorded: C. albicans; also recorded: C. jejuni,MRSA (C),S. epidermidis (C),"Organism, effect: E. coli (microorganisms [3]; E. coli): E. coli (S)"
PF-414: peptide having multiple activities (chain 1 LLNKKLE; chain 2 LLNKKLE; Peptide with targeting and/or antimicrobial activity),G B,E. coli; also recorded: C. albicans; also recorded: C. jeikeium,–,–,"Organism, effect: S. pneumoniae (microorganisms [3]; S. pneumoniae): S. pneumoniae (H)"
PF-416: peptide having multiple activities (chain 1 SKAGLYGKIERSDKRE; chain 2 SKAGLYGKIERSDKRE; Peptide with targeting and/or antimicrobial activity),G B,S. pneumoniae; also recorded: C. jeikeium,–,–,"Organism, effect: S. pneumoniae (microorganisms [3]; S. pneumoniae): S. pneumoniae (H)"
PF-417: peptide having multiple activities (chain 1 DSYFRS; chain 2 DSYFRS; Peptide with targeting and/or antimicrobial activity),G B,S. epidermidis; also recorded: C. jeikeium; also recorded: C. jejuni,MRSA (M),S. epidermidis (M),"Organism, effect: S. pneumoniae (microorganisms [3]; S. pneumoniae): S. pneumoniae (M)"
PF-421: peptide having multiple activities (chain 1 KHCFEITDKTDVV; chain 2 KHCFEITDKTDVV; Peptide with targeting and/or antimicrobial activity),G B,C. jeikeium,–,–,"Organism, effect (microorganisms [3]; S. pneumoniae): S. pneumoniae (H)"
PF-423: peptide having multiple activities (chain 1 AGKKERLLSFREQFLNKNKKK; chain 2 AGKKERLLSFREQFLNKNKKK; Peptide with targeting and/or antimicrobial activity),G B,S. epidermidis; also recorded: M. luteus; also recorded: E. coli; also recorded: S. pneumoniae; also recorded: E. faecalis; also recorded: C. jeikeium,–,–,"Organism, effect (microorganisms [3]; S. pneumoniae): S. pneumoniae (H)"
PF-424: peptide having multiple activities (chain 1 IAAFVTSRAFSDTVSPI; chain 2 IAAFVTSRAFSDTVSPI; Peptide with targeting and/or antimicrobial activity),G B,S. epidermidis and C. albicans and MRSA,–,–,"Organism, effect (microorganisms [3]; S. pneumoniae): S. pneumoniae (H)"
PF-425: peptide having multiple activities (chain 1 MMELVLKTIIGPIVVGVVLRIVDKWLNKDK; chain 2 MMELVLKTIIGPIVVGVVLRIVDKWLNKDK; Peptide with targeting and/or antimicrobial activity),G B,S. epidermidis and M. luteus and E. coli and P. aeruginosa and C. albicans and MRSA and S. pneumoniae and C. jeikeium,–,–,"Organism, effect (microorganisms [3]; C. albicans): C. albicans (A); Organism, effect (microorganisms [3]; C. jejuni): C. jejuni (D); Organism, effect (microorganisms [3]; E. coli): E. coli (C); Organism, effect (microorganisms [3]; E. faecalis): E. faecalis (D); Organism, effect (microorganisms [3]; MRSA): MRSA (D); Organism, effect (microorganisms [3]; P. aeruginosa): P. aeruginosa (A); Organism, effect (microorganisms [3]; S. epidermidis): S. epidermidis (D); Organism, effect (microorganisms [3]; S. pneumoniae): S. pneumoniae (D)"
PF-426: peptide having multiple activities (chain 1 MLQKYTQMISVTKCIITKNKKTQENVDAYN; chain 2 MLQKYTQMISVTKCIITKNKKTQENVDAYN; Peptide with targeting and/or antimicrobial activity),G B,S. epidermidis and E. coli and P. aeruginosa and C. albicans and MRSA and S. pneumoniae and E. faecalis and C. jeikeium,–,–,"Organism, effect (microorganisms [3]; C. albicans): C. albicans (A); Organism, effect (microorganisms [3]; C. jejuni): C. jejuni (D); Organism, effect (microorganisms [3]; E. coli): E. coli (C); Organism, effect (microorganisms [3]; E. faecalis): E. faecalis (D); Organism, effect (microorganisms [3]; MRSA): MRSA (D); Organism, effect (microorganisms [3]; S. epidermidis): S. epidermidis (D); Organism, effect (microorganisms [3]; S. pneumoniae): S. pneumoniae (D)"

# From US20110039763A1, “TARGETED ANTIMICROBIAL MOIETIES” (C3 JIAN, INC., priority 2009, published 2011)
